Patent publication US20230000813A1, “COMPOUND FOR THE TREATMENT OF BOVINE OR SWINE RESPIRATORY DISEASE” (Intervet Inc., priority 2016, published 2023)
In brackets after ≈: the same amount, converted by molar mass.

Assays:
Experiment in all cases: MIC, broth-microdilution (CLSI VET01-A4)
Type in all cases: cell-based
[1] = tested on: Mannheimia haemolytica MH 6357 (M7/2, reference strain, cattle infection strain); conditions: Mannheimia haemolytica MH 6357; for MIC: read-out: MIC MH 6357
Protocol: (§1) The Minimum inhibitory concentrations (MIC) of compounds according to the invention for a number of veterinary bacterial pathogens were determined by the broth-microdilution method according to CLSI document VET01-A4.
(§2) Microdilution trays containing a doubling dilution series of the test compound were used for the tests. The MIC results were interpreted according to the CLSI documents VET01-S3. The lowest concentration of compound at which no visible growth (i.e. no turbidity) detected by the unaided eye was recorded as the MIC.
(§3) The Minimum inhibitory concentrations (MIC) of compounds according to the invention were determined by the broth-microdilution method according to CLSI document VET01-A4.
(§4) Microdilution trays containing a doubling dilution series of the test compound were used for the tests.
(§5) The MIC results were interpreted according to the CLSI documents VET01-S3. The lowest concentration of compound at which no visible growth (i.e. no turbidity) detected by the unaided eye was recorded as the MIC.

[2] = tested on: Mannheimia haemolytica MH 6374 (ATCC 33396, reference strain); conditions: Mannheimia haemolytica MH 6374; for MIC: read-out: MIC MH 6374
Protocol: as §1, §2, §3, §4, §5

[3] = tested on: Pasteurella multocida PM 6391 (ATCC 43137, reference strain); conditions: Pasteurella multocida PM 6391; for MIC: read-out: MIC PM 6391
Protocol: as §1, §2, §3, §4, §5

[4] = tested on: Pasteurella multocida PM 10775 (080130003051, BRD field isolate); conditions: Pasteurella multocida PM 10775
Protocol: as §1, §2, §3, §4, §5

[5] = tested on: Mannheimia haemolytica MH 12587 (1071, BRD field isolate, macrolide-resistance: erm+, E+); conditions: Mannheimia haemolytica MH 12587, macrolide-resistant
Protocol: as §1, §2, §3, §4, §5

[6] = tested on: Mannheimia haemolytica MH 10720 (154, BRD field isolate); conditions: Mannheimia haemolytica MH 10720; for MIC: read-out: MIC MH 10720
Protocol: as §1, §2, §3, §4, §5

[7] = tested on: Pasteurella multocida PM 12080 (IV102277-0093, BRD field isolate); conditions: Pasteurella multocida PM 12080; for MIC: read-out: MIC PM 12080
Protocol: as §1, §2, §3, §4, §5

[8] = tested on: Pasteurella multocida PM 6267 (P 2225 (L386), reference strain, mouse infection strain); conditions: Pasteurella multocida PM 6267; for MIC: read-out: MIC PM 6267
Protocol: as §1, §2, §3, §4, §5

[9] = tested on: Mannheimia haemolytica MH 13093 (XB0472-6014.1, BRD field isolate)
Protocol: as §1, §2

[10] = tested on: Mannheimia haemolytica MH 13065 (XB0446-6003.9, BRD field isolate)
Protocol: as §1, §2

Structure (SMILES)	MIC [1] [µM]	MIC [2] [µM]	MIC [3] [µM]	MIC PM 10775 [4]	MIC MH 12587 [5] [µM]	MIC [6] [µM]	MIC PM 12080 [7]	MIC PM 6267 [8]	MIC [9] [µM]	MIC [10] [µM]	MIC PM 6391 [3]	MIC ([4]; read-out: MIC PM 10775) [µM]	MIC [7] [µM]	MIC [8] [µM]	MIC MH 10720 [6]	MIC MH 6374 [2]	MIC MH 13065 [10]	MIC MH 6357 [1]	MIC MH 13093 [9]
CC(C)(N)C(NC(=O)c1ccc(C#Cc2ccc(CNCc3cccnc3)cc2)cc1)C(=O)NO (racemic) [C. 364]	1.6 (≈ 0.754 µg/mL)	1.6 (≈ 0.754 µg/mL)	0.2 (≈ 0.0943 µg/mL)	<=0.1 μM	1.6 (≈ 0.754 µg/mL)	0.8 (≈ 0.377 µg/mL)	<=0.1 μM	<=0.1 μM	1.6 (≈ 0.754 µg/mL)	0.8 (≈ 0.377 µg/mL)									
CC(C)(N)C(NC(=O)c1ccc(C#Cc2ccc(CNCc3ccnc(Cl)c3)cc2)cc1)C(=O)NO (racemic) [Compound 313]	0.8 (≈ 0.405 µg/mL)	0.8 (≈ 0.405 µg/mL)			1.6 (≈ 0.81 µg/mL)	0.4 (≈ 0.202 µg/mL)	<=0.1 μM	<=0.1 μM	1.6 (≈ 0.81 µg/mL)	1.6 (≈ 0.81 µg/mL)	<=0.1 μM	0.2 (≈ 0.101 µg/mL)							
CC(C)(N)C(NC(=O)c1ccc(C#Cc2ccc(CNCc3ccccc3)cc2)cc1)C(=O)NO (racemic) [Compound 321]	1.6 (≈ 0.753 µg/mL)	0.8 (≈ 0.376 µg/mL)		<=0.1 μM	1.6 (≈ 0.753 µg/mL)	0.4 (≈ 0.188 µg/mL)			1.6 (≈ 0.753 µg/mL)	0.8 (≈ 0.376 µg/mL)	<=0.1 μM		0.2 (≈ 0.0941 µg/mL)	0.4 (≈ 0.188 µg/mL)					
CC(C)(N)C(NC(=O)c1ccc(C#Cc2ccc(CNCC(F)(F)F)cc2)cc1)C(=O)NO (racemic) [Compound 623]	0.8 (≈ 0.37 µg/mL)	0.4 (≈ 0.185 µg/mL)	0.2 (≈ 0.0925 µg/mL)	<=0.1 μM	1.6 (≈ 0.74 µg/mL)		<=0.1 μM	<=0.1 μM	0.8 (≈ 0.37 µg/mL)	0.8 (≈ 0.37 µg/mL)					<=0.1 μM				
C#CCNCc1ccc(C#Cc2ccc(C(=O)NC(C(=O)NO)C(C)(C)N)cc2)cc1 (racemic) [Compound 626]	0.8 (≈ 0.335 µg/mL)	0.4 (≈ 0.167 µg/mL)		<=0.1 μM	0.8 (≈ 0.335 µg/mL)		<=0.1 μM	<=0.1 μM	0.8 (≈ 0.335 µg/mL)	0.4 (≈ 0.167 µg/mL)					<=0.1 μM				
C=CCNCc1ccc(C#Cc2ccc(C(=O)N[C@H](C(=O)NO)[C@@H](C)O)cc2)cn1 [C. 415]	0.8 (≈ 0.327 µg/mL)	1.6 (≈ 0.654 µg/mL)	0.2 (≈ 0.0817 µg/mL)	<=0.1 μM	1.6 (≈ 0.654 µg/mL)				1.6 (≈ 0.654 µg/mL)	0.4 (≈ 0.163 µg/mL)			0.4 (≈ 0.163 µg/mL)	0.2 (≈ 0.0817 µg/mL)					
CC(C)C(NC(=O)c1ccc(C#Cc2ccc(CNCC#N)cc2)cc1)C(=O)NO (stereo not shown) [Compound 346]	0.4 (≈ 0.162 µg/mL)	0.4 (≈ 0.162 µg/mL)		<=0.1 μM	0.8 (≈ 0.324 µg/mL)		<=0.1 μM	<=0.1 μM	0.4 (≈ 0.162 µg/mL)	0.2 (≈ 0.0809 µg/mL)					<=0.1 μM				
C[C@@H](O)[C@H](NC(=O)c1ccc(C#Cc2ccc(CNC3CC3)s2)cc1)C(=O)NO [Compound 398]	0.4 (≈ 0.165 µg/mL)	0.8 (≈ 0.331 µg/mL)		<=0.1 μM	0.4 (≈ 0.165 µg/mL)		<=0.1 μM	<=0.1 μM	0.2 (≈ 0.0827 µg/mL)	0.2 (≈ 0.0827 µg/mL)	<=0.1 μM								
C[C@@H](O)[C@H](NC(=O)c1ccc(C#Cc2ccc(CNCc3ccncc3)s2)cc1)C(=O)NO [Compound 401]	0.4 (≈ 0.186 µg/mL)	0.8 (≈ 0.372 µg/mL)	0.2 (≈ 0.0929 µg/mL)	<=0.1 μM	0.8 (≈ 0.372 µg/mL)			<=0.1 μM	0.8 (≈ 0.372 µg/mL)	0.4 (≈ 0.186 µg/mL)			0.2 (≈ 0.0929 µg/mL)						
C[C@@H](O)[C@H](NC(=O)c1ccc(C#Cc2ccc(CNC3CCC3)s2)cc1)C(=O)NO [Compound 402]	0.8 (≈ 0.342 µg/mL)	0.8 (≈ 0.342 µg/mL)	0.2 (≈ 0.0855 µg/mL)	<=0.1 μM	1.6 (≈ 0.684 µg/mL)			<=0.1 μM	0.8 (≈ 0.342 µg/mL)	0.4 (≈ 0.171 µg/mL)			0.4 (≈ 0.171 µg/mL)						
CCCNCc1ccc(C#Cc2ccc(C(=O)N[C@H](C(=O)NO)[C@@H](C)O)cc2)s1 [Compound 404]	1.6 (≈ 0.665 µg/mL)	1.6 (≈ 0.665 µg/mL)	0.4 (≈ 0.166 µg/mL)	<=0.1 μM	1.6 (≈ 0.665 µg/mL)				1.6 (≈ 0.665 µg/mL)	0.8 (≈ 0.332 µg/mL)			0.8 (≈ 0.332 µg/mL)	0.4 (≈ 0.166 µg/mL)					
C[C@@H](O)[C@H](NC(=O)c1ccc(C#Cc2ccc(CNCC#N)s2)cc1)C(=O)NO [Compound 406]	1.6 (≈ 0.66 µg/mL)	1.6 (≈ 0.66 µg/mL)	0.2 (≈ 0.0825 µg/mL)	<=0.1 μM	1.6 (≈ 0.66 µg/mL)			<=0.1 μM	1.6 (≈ 0.66 µg/mL)	0.8 (≈ 0.33 µg/mL)			0.4 (≈ 0.165 µg/mL)						
C[C@@H](O)[C@H](NC(=O)c1ccc(C#Cc2ccc(CNCc3cccnc3)s2)cc1)C(=O)NO [Compound 407]	0.4 (≈ 0.186 µg/mL)	0.4 (≈ 0.186 µg/mL)		<=0.1 μM	0.4 (≈ 0.186 µg/mL)		<=0.1 μM	<=0.1 μM	0.4 (≈ 0.186 µg/mL)	0.2 (≈ 0.0929 µg/mL)	<=0.1 μM								
C[C@@H](O)[C@H](NC(=O)c1ccc(C#Cc2ccc(CNCc3ccccn3)s2)cc1)C(=O)NO [Compound 408]	0.4 (≈ 0.186 µg/mL)	0.4 (≈ 0.186 µg/mL)		<=0.1 μM	0.8 (≈ 0.372 µg/mL)		<=0.1 μM	<=0.1 μM	0.4 (≈ 0.186 µg/mL)	0.4 (≈ 0.186 µg/mL)	<=0.1 μM								
C[C@@H](O)[C@H](NC(=O)c1ccc(C#Cc2ccc(CNCc3ccco3)s2)cc1)C(=O)NO [Compound 409]	0.2 (≈ 0.0907 µg/mL)			<=0.1 μM	0.4 (≈ 0.181 µg/mL)		<=0.1 μM	<=0.1 μM	0.2 (≈ 0.0907 µg/mL)		<=0.1 μM					<=0.1 μM	<=0.1 μM		
C[C@@H](O)[C@H](NC(=O)c1ccc(C#Cc2ccc(CNCc3cccs3)s2)cc1)C(=O)NO [Compound 410]				<=0.1 μM	0.2 (≈ 0.0939 µg/mL)		<=0.1 μM	<=0.1 μM			<=0.1 μM					<=0.1 μM	<=0.1 μM	<=0.1 μM	<=0.1 μM
Cc1ccc(CNCc2ccc(C#Cc3ccc(C(=O)N[C@H](C(=O)NO)[C@@H](C)O)cc3)s2)cc1 [Compound 411]	0.2 (≈ 0.0955 µg/mL)			<=0.1 μM	0.4 (≈ 0.191 µg/mL)		<=0.1 μM	<=0.1 μM	0.2 (≈ 0.0955 µg/mL)		<=0.1 μM					<=0.1 μM	<=0.1 μM		
C[C@@H](O)[C@H](NC(=O)c1ccc(C#Cc2ccc(CNCc3ccco3)nc2)cc1)C(=O)NO [Compound 424]	0.8 (≈ 0.359 µg/mL)	1.6 (≈ 0.718 µg/mL)		<=0.1 μM	1.6 (≈ 0.718 µg/mL)		<=0.1 μM	<=0.1 μM	0.8 (≈ 0.359 µg/mL)	0.4 (≈ 0.179 µg/mL)	<=0.1 μM								
C[C@@H](O)[C@H](NC(=O)c1ccc(C#Cc2ccc(CNCc3cccs3)nc2)cc1)C(=O)NO [Compound 425]	0.8 (≈ 0.372 µg/mL)	0.8 (≈ 0.372 µg/mL)		<=0.1 μM	0.8 (≈ 0.372 µg/mL)		<=0.1 μM	<=0.1 μM	0.8 (≈ 0.372 µg/mL)	0.4 (≈ 0.186 µg/mL)	<=0.1 μM								
